Measured values published in EP4682141A1, “TRICYCLIC COMPOUND” (ONO Pharmaceutical Co., Ltd., priority 2023, dated 2024).

Key:
diabetes model rat = experiment: inhibitory effect on the amount of albumin excreted in urine in diabetes model rat; assay type: in vivo, SDT Fatty rats; settings: urine collected for 24 hours, urine albumin/urine creatinine ratio
Description: Male SDT Fatty rats aged 6 weeks (CLEA Japan) were purchased and preliminarily bred for 1 week or more. Experiments were performed at 8 to 16 weeks of age. The animals were fed ad libitum with solid feed CRF-1 (Oriental Yeast) and watered ad libitum.
Animals were housed in metabolic cages 2 days before test substance administration, and urine was collected for 24 hours. On the day before administration of the test substance, urine albumin and urine creatinine were measured, and grouping was performed by a stratification randomization method based on the urine albumin/urine creatinine ratio (ACR) and the average value of body weights for each group.
The compounds (test substances) of Examples 9-5, 10, 11, 12, 25-7 and 32, and water for injection (Otsuka Pharmaceutical) as a vehicle were orally administered once at 5 mL/kg. The administration dose is described in Table 3.
For evaluation of the amount of albumin excreted in urine of each animal, a urine albumin/urine creatinine ratio (ACR) was measured. After administration of the test substance, the animals were housed in metabolic cages, and urine was collected for 24 hours. Each concentration of urine albumin and urine creatinine was measured using an automatic analyzer 7180 (Hitachi High-Tech), and ACR was calculated by dividing the urine albumin concentration by the urine creatinine concentration.

[1] = tested on: rat 5/6 kidney-removed model; experiment: in vivo drug efficacy on renal damage in rat 5/6 kidney-removed model; design: species or system Jcl: Wistar (Wistar) rats; settings: after 8 weeks from the start of administration
From the text: The obtained urine sample was centrifuged, and the supernatant was subjected to measurement.

[2] = tested on: diabetic renal disease model rat; experiment: in vivo drug efficacy in diabetic renal disease model rat (single kidney removal, saline); design: species or system SDT.Cg-Leprfa/JttJcl (SDT-fatty rat); settings: 8 weeks after the start of administration
Description: A diabetic renal disease model was created by extracting the unilateral kidneys of male SDT.Cg-Leprfa/JttJcl (SDT-fatty/Jcl, CLEA Japan) rats, a type 2 diabetes model, and then giving saline. The in vivo drug efficacy of the present compound on diabetic renal disease was evaluated in this model.
Male SDT.Cg-Leprfa/JttJcl (SDT-fatty rat) aged 4 weeks was purchased from CLEA Japan, and subjected to experiments. The animals were fed ad libitum with Purina5008 (Japan SLC) from the time of arrival, and watered ad libitum. Water was given from the arrival and until 1 week from single kidney removal, and a 0.2 w/v% NaCl solution was given 1 week after single kidney removal.
After acclimation breeding, the body weight was measured, and buprenorphine was subcutaneously administered at a dose of 0.01 mg/kg under inhalation anesthesia with isoflurane (Mayran). After removing hair from the right abdomen of the rat, the right abdomen was disinfected with ethanol and isodine for disinfection and incised to expose the right kidney. The renal artery and vein was ligated with a suture to stop the blood flow, the right kidney was totally removed, and the incision was sutured. The following day, analgesic buprenorphine was administered subcutaneously at a dose of 0.01 mg/kg.
Grouping was performed 3 weeks after single kidney removal. The mice were divided into groups so that the average of the above parameters was almost equal between the groups on the basis of body weight, serum urea nitrogen (BUN), serum creatinine (S-CRE), serum total cholesterol (T-CHO), blood glucose level (GLU), neutral fat (TG), urinary protein (U-TP), urinary albumin (U-ALB), and creatinine clearance (CCr).
All of the compounds of Examples 25-7, 10, 11 and 12 were orally administered once a day for 8 weeks in combination with losartan (30 mg/kg), a renin angiotensin system inhibitor, and canagliflozin (10 mg/kg), a glucose co-transporter inhibitor. The compounds of Examples 25-7, 10, 11 and 12, and losartan were each dissolved in water for injection (Otsuka Pharmaceutical), and canagliflozin was suspended in a 0.5% methyl cellulose solution (Fujifilm Wako Pure Chemical Corporation) to prepare an administration solution. In the Control-1 group, water for injection which is a vehicle of losartan or the compound of Examples 25-7, 10, 11 or 12 was orally administered at 5 mL/kg, and a 0.5% methylcellulose solution which is a vehicle of canagliflozin was orally administered at 2.5 mL/kg once a day for 8 weeks. In the Control-2 group, losartan (30 mg/kg) dissolved in water for injection was orally administered at an administration volume of 2.5 mL/kg, canagliflozin (10 mg/kg) suspended in a 0.5% methyl cellulose solution was orally administered at an administration volume of 2.5 mL/kg, and water for injection which is a vehicle of the compounds of Examples 25-7, 10, 11 and 12 was orally administered at an administration volume of 2.5 mL/kg once a day for 8 weeks. The administration dose is described in Table 8.
Blood was collected by puncturing the tail vein of the rat with an injection needle. Blood was collected in a tube for serum separation (BD Microtainer) and centrifuged to obtain serum. Urine was collected for 24 hours in a metabolic cage for rat under conditions in which a solid feed and water can be freely taken. The obtained urine sample was centrifuged, and the supernatant was subjected to measurement. The concentrations of BUN, S-CRE, T-CHO, TG, U-ALB, U-TP, GLU and U-CRE were measured by an automatic analyzer Hitachi 7180 (Hitachi High-Tech).

SMILES | ACR mean (diabetes model rat; 0.01 mg/kg orally once) | ACR mean (diabetes model rat; 0.03 mg/kg orally once) | Amount of albumin excreted in urine mean ([1]; 0.01 mg/kg orally once a day for 8 weeks) | Amount of albumin excreted in urine mean ([1]; 0.03 mg/kg orally once a day for 8 weeks) | Serum creatinine mean ([2]; 0.01 mg/kg orally once a day for 8 weeks in combination with losartan (30 mg/kg) and canagliflozin (10 mg/kg)) | Serum creatinine mean ([2]; 0.03 mg/kg orally once a day for 8 weeks in combination with losartan (30 mg/kg) and canagliflozin (10 mg/kg)) | ACR mean (diabetes model rat; 0.003 mg/kg orally once) | Serum creatinine mean ([2]; 0.1 mg/kg orally once a day for 8 weeks in combination with losartan (30 mg/kg) and canagliflozin (10 mg/kg))
Cc1c(C(=O)O)ccc2c1O[C@H]1C[C@@H](O)[C@H](/C=C/C[C@@](C)(O)CCCC(F)(F)F)[C@H]1CC2 [Example 12, (1R,2R,3aS,10aR)-2-hydroxy-5-methyl-1-[(1E,4S)-8,8,8-trifluoro-4-hydroxy-4-methyl-1-octen-1-yl]-2,3,3a,9,10,10a-hexahydro-1H-benzo[b]cyclopenta[f]oxepine-6-carboxylic acid] | 4602.3 µg/mg | 3887.3 µg/mg | 66.09 mg/24 h | 44.16 mg/24 h | 0.51 mg/dL | 0.45 mg/dL | – | –
CC(C)(c1ccccc1)C(O)/C=C/[C@H]1CC[C@@H]2Oc3c(ccc(C(=O)O)c3F)CC[C@@H]21 (stereo partly drawn) [Example 25-7, (1R,3aS,10aR)-5-fluoro-1-[(1E,3ξ)-3-hydroxy-4-methyl-4-phenyl-1-penten-1-yl]-2,3,3a,9,10,10a-hexahydro-1H-benzo[b]cyclopenta[f]oxepine-6-carboxylic acid] | 2331.6 µg/mg | – | – | – | – | – | 3217.6 µg/mg | 0.45 mg/dL
